# pIC50: −log10 of the molar value.
# Experiments:
# [1] = target: T1, HDAC1 (Homo sapiens, UniProt Q13547); assay: HDAC enzyme activity inhibition (in vitro), HDAC1 Fluorimetric Drug Discovery Assay Kit; type: biochemical; details: samples at 100, 1000 and 10000 nM; 37° C. 60 minutes; fluorescence Ex 390, Em 460; read-out: HDAC1 IC50
# T1 construct: purchased Enzolifesciences BML-AK511
# Procedure, shortened: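 Each sample reacted with enzyme for 60 min at 37° C before a 30-min developer step at the same temperature. HDAC1 doses spanned 100 to 10000 nM. Fluorescent signal was read at Ex 390/Em 460.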
# [2] = target: T2, HDAC6 human recombinant (Homo sapiens, UniProt Q9UBN7); assay: HDAC enzyme activity inhibition (in vitro), HDAC6 assay; type: biochemical; details: samples at 0.1, 1, 10, 100 and 1000 nM; 37° C. 60 minutes; fluorescence Ex 390, Em 460; read-out: HDAC6 IC50
# T2 construct: purchased Calbiochem 382180
# T2 sequence (Q9UBN7 1-1215): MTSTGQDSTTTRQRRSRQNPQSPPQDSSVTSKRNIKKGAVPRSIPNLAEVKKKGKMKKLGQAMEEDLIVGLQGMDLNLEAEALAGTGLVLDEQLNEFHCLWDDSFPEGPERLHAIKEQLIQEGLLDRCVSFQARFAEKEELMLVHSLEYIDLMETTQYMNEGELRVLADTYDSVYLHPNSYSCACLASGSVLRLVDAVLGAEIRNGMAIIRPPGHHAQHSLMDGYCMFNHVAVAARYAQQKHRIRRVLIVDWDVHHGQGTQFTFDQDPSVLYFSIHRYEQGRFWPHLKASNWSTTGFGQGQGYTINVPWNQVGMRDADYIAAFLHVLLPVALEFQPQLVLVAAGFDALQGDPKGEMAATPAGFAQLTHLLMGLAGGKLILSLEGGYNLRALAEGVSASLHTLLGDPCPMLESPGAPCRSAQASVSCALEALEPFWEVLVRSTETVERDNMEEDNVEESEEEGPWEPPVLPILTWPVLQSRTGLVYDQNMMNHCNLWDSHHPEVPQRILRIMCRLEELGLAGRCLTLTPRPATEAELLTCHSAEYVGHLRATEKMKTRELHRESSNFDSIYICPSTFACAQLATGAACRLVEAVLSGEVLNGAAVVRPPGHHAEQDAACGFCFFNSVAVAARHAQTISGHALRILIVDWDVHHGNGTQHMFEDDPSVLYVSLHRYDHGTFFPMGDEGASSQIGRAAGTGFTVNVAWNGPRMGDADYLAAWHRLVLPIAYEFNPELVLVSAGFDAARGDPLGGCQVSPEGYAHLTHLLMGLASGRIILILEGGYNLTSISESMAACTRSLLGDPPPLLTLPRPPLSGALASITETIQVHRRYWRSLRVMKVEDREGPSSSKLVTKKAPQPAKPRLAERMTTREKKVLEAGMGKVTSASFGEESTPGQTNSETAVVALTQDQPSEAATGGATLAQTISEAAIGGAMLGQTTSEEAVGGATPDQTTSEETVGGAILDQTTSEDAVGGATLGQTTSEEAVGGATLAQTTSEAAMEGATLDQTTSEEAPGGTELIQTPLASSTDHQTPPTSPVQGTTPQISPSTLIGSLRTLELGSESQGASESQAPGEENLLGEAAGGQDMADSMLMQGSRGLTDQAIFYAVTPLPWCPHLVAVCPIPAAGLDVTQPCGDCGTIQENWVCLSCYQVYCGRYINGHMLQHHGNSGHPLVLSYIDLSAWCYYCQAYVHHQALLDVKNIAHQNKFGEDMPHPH
# Procedure, shortened: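 Fluorescence (Ex 390, Em 460) read after a 37° C, 60 min enzyme reaction and a further 30 min developer step at 37° C. Uses recombinant human HDAC6; HDAC1 arm dosed at 100, 1000, 10000 nM.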
# T1 sequence (Q13547 whole entry): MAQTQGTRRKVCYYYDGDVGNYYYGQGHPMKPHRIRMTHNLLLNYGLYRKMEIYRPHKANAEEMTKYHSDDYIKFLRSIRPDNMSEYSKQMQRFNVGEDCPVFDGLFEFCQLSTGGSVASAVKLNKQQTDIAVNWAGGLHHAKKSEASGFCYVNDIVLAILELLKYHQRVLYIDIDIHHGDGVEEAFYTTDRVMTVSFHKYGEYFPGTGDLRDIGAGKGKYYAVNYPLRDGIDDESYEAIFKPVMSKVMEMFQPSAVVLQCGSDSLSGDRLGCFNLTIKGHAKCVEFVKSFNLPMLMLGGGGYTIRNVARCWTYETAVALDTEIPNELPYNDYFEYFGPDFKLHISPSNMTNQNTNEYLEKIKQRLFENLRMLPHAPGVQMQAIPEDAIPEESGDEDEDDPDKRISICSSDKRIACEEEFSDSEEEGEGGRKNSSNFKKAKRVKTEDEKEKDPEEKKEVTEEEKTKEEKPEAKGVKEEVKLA
SMILES,pIC50 [1],pIC50 [2]
"CN1CCC(n2c(=O)n(Cc3ccc(-c4nnc(C(F)F)o4)cn3)c3ccc(-c4ccncc4)cc32)CC1 [Compound 135, 1-((5-(5-(difluoromethyl)-1,3,4-oxadiazole-2-yl)pyridine-2-yl)methyl)-3-(1-methylpiperidine-4-yl)-5-(pyridine-4-yl)-1,3-dihydro-2H-benzo[d]imidazole-2-one]",< 5.00,7.72
"CN1CCC(n2c(=O)n(Cc3ccc(-c4nnc(C(F)F)o4)cn3)c3ccc(-c4cccnc4)cc32)CC1 [Compound 136, 1-((5-(5-(difluoromethyl)-1,3,4-oxadiazole-2-yl)pyridine-2-yl)methyl)-3-(1-methylpiperidine-4-yl)-5-(pyridine-3-yl)-1,3-dihydro-2H-benzo[d]imidazole-2-one]",< 5.00,7.92
"CN1CCC(n2c(=O)n(Cc3ccc(-c4nnc(C(F)F)o4)cn3)c3ccc(-c4ccoc4)cc32)CC1 [Compound 137, 1-((5-(5-(difluoromethyl)-1,3,4-oxadiazole-2-yl)pyridine-2-yl)methyl)-5-(furan-3-yl)-3-(1-methylpiperidine-4-yl)-1,3-dihydro-2H-benzo[d]imidazole-2-one]",< 5.00,7.72
"CN1CCC(n2c(=O)n(Cc3ccc(-c4nnc(C(F)F)o4)cn3)c3ccc(-c4ccco4)cc32)CC1 [Compound 138, 1-((5-(5-(difluoromethyl)-1,3,4-oxadiazole-2-yl)pyridine-2-yl)methyl)-5-(furan-2-yl)-3-(1-methylpiperidine-4-yl)-1,3-dihydro-2H-benzo[d]imidazole-2-one]",< 5.00,7.72
"CN1CCC(n2c(=O)n(Cc3ccc(-c4nnc(C(F)F)o4)cc3F)c3ccc(-c4cccnc4)cc32)CC1 [Compound 139, 1-(4-(5-(difluoromethyl)-1,3,4-oxadiazole-2-yl)-2-fluorobenzyl)-3-(1-methylpiperidine-4-yl)-5-(pyridine-3-yl)-1,3-dihydro-2H-benzo[d]imidazole-2-one]",< 5.00,7.51
"CN1CCC(n2c(=O)n(Cc3ccc(-c4nnc(C(F)F)o4)cc3F)c3ccc(-c4ccco4)cc32)CC1 [Compound 140, 1-(4-(5-(difluoromethyl)-1,3,4-oxadiazole-2-yl)-2-fluorobenzyl)-5-(furan-2-yl)-3-(1-methylpiperidine-4-yl)-1,3-dihydro-2H-benzo[d]imidazole-2-one]",< 5.00,7.27
"CN1CCC(n2c(=O)n(Cc3ccc(-c4nnc(C(F)F)o4)cn3)c3cc(Br)ccc32)CC1 [Compound 141, 5-bromo-3-((5-(5-(difluoromethyl)-1,3,4-oxadiazole-2-yl)pyridine-2-yl)methyl)-1-(1-methylpiperidine-4-yl)-1,3-dihydro-2H-benzo[d]imidazole-2-one]",< 5.00,7.92
"Cn1c(=O)n(Cc2ccc(-c3nnc(C(F)F)o3)cn2)c2cc(F)ccc21 [Compound 142, 3-((5-(5-(difluoromethyl)-1,3,4-oxadiazole-2-yl)pyridine-2-yl)methyl)-5-fluoro-1-methy 1-1,3-dihydro-2H-benzo[d]imidazole-2-one]",< 5.00,7.74
"Cn1c(=O)n(Cc2ccc(-c3nnc(C(F)F)o3)cc2F)c2cc(F)ccc21 [Compound 143, 3-(4-(5-(difluoromethyl)-1,3,4-oxadiazole-2-yl)-2-fluorobenzyl)-5-fluoro-1-methyl-1,3-dihydro-2H-benzo[d]imidazole-2-one]",< 5.00,7.15
"Cn1c(=O)n(Cc2ccc(-c3nnc(C(F)F)o3)cc2)c2cc(F)ccc21 [Compound 144, 3-(4-(5-(difluoromethyl)-1,3,4-oxadiazole-2-yl)benzyl)-5-fluoro-1-methyl-1,3-dihydro-2H-benzo[d]imidazole-2-one]",< 5.00,7.11
